Experimental data from ChEMBL document CHEMBL5338781, “Fragment-Based Approaches to Identify RNA Binders” (J Med Chem, 2023).
Converted amounts (≈) assume the structure as drawn.

Columns and labels:
[1] = Binding affinity to Escherichia coli ThiM TPP riboswitch
Escherichia coli [2] = assay: Binding affinity to Escherichia coli ThiM TPP riboswitch assessed as inhibition of conformational switching
[3] = target: T1, Sulfhydryl oxidase 1 (Homo sapiens) (UniProt O00391); assay: Inhibition of QSOX1 in human MDA-MB-231 cells at 20 uM relative to control; assay type: cell-based
T1 sequence (whole entry): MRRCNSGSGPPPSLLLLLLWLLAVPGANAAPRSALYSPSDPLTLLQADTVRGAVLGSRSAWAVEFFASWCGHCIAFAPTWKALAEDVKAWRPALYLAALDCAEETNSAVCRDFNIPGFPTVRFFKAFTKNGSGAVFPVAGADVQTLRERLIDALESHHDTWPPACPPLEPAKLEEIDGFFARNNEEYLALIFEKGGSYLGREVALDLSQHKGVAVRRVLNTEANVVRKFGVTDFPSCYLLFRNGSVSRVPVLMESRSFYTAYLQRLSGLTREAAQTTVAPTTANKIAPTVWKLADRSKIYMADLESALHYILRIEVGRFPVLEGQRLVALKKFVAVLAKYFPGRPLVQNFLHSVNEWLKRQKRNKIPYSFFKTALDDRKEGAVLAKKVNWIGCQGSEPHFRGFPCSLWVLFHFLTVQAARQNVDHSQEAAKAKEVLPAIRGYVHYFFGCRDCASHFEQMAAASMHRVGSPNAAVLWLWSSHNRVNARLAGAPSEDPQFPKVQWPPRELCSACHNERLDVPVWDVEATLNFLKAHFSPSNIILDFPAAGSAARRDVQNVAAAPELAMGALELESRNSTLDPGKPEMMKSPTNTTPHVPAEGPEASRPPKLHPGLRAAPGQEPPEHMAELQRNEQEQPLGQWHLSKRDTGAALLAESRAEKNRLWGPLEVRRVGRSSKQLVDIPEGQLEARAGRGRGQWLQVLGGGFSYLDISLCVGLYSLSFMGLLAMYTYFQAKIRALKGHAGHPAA

[4] = Binding affinity to bacteria RNA by HTS method
[5] = Binding affinity to HIV1 TAR RNA assessed as inhibition of Tat-mediated transactivation; assay type: functional, Human immunodeficiency virus 1
[6] = Binding affinity to pri-miR-96 (unknown origin)
microRNA 21 [7] = assay: Binding affinity to pre-miR-21 (unknown origin); assay type: nucleic-acid assay
Sulfhydryl oxidase 1 = target: T2, Sulfhydryl oxidase 1 (Homo sapiens, UniProt O00391); assay: Binding affinity to QSOX1 in human MDA-MB-231 cells; assay type: cell-based
T2 sequence (O00391 whole entry): T1 sequence (whole entry)

RNA = assay: Binding affinity to RNA (unknown origin) by fluorescence based analysis; assay type: nucleic-acid assay
Influenza B virus = assay: Antiviral activity against Influenza B virus assessed as inhibition of virus-induced cytopathic effect; assay type: functional, organism-based
[8] = Binding affinity to influenza A virus RNA by one-dimensional NMR spectroscopy method
Influenza A virus = assay: Antiviral activity against Influenza A virus assessed as inhibition of virus-induced cytopathic effect; assay type: functional, organism-based
microRNA 21 [9] = assay: Inhibition of pre-miR-21 biogenesis in human MDA-MB-231 cells; assay type: cell-based
microRNA 21 [10] = assay: Inhibition of pre-miR-21 biogenesis in human Triple-negative breast cancer cell; assay type: cell-based
[11] = Inhibition of pre-miR-372 biogenesis in human AGS cells; assay type: cell-based
[12] = Binding affinity to pre-miR-372 (unknown origin)
[13] = Inhibition of pri-miR-96 biogenesis in human MDA-MB-231 cells; assay type: cell-based
[14] = Binding affinity to HIV-1 RNA by SPR analysis; design: species or system Human immunodeficiency virus 1
Escherichia coli [15] = assay: Antibacterial activity against Escherichia coli assessed as bacterial growth inhibition; assay type: functional
Staphylococcus aureus = assay: Antibacterial activity against Staphylococcus aureus assessed as bacterial growth inhibition; assay type: functional
Bacterial 70S ribosome = assay: Inhibition of Mycobacterium smegmatis ribosomes assessed as inhibition of translation activity; assay type: subcellular, Mycolicibacterium smegmatis

In the case of `c1cc(N2CCNCC2)c(NCc2ccc3nccnc3c2)cn1`, the Kd [1] is reported as 0.068 µM and the K (Escherichia coli [2]) is reported as 68 µM.
In the case of `C#CCCC1(CCC(=O)N(C)[C@H]2CC[C@@H](c3ccc(Cl)c(Cl)c3)c3ccccc32)N=N1`, the inhibition [3] is reported as 15%.
In the case of `NCC[C@@H](NC(=O)c1ccc(-c2cccc(NC(=O)c3ccc4nc(O)c(O)nc4c3)c2)o1)C(=O)N1CCNCC1`, the Kd [4] is reported as 6.5 µM.
In the case of `NC1=Nc2cccc3cccc(c23)N1`, the IC50 [5] is reported as 50 µM.
`CN1CCN(c2ccc3nc(-c4cc(C(C)(C)C)c(OCCCC(=O)NCCCN=[N+]=[N-])c(C(C)(C)C)c4)[nH]c3c2)CC1` gave a Kd [6] of 1.5 µM.
With `CN1CCN(c2ccc(-c3ccc4nc(-c5ccc(OCCCC(=O)CCCN=[N+]=[N-])cc5)[nH]c4c3)cc2)CC1` the Kd (microRNA 21 [7]) was 18 µM.
For `CCOC(=O)C1=C(Nc2ccccc2)S/C(=C\c2ccc(OCCOCCOCCOCCNC(=O)CCC(=O)N(C)[C@H]3CC[C@@H](c4ccc(Cl)c(Cl)c4)c4ccccc43)c(O)c2)C1=O`, the Kd (Sulfhydryl oxidase 1) was 16 µM.
Compound `Nc1csc(Br)n1` has a Kd (RNA) of 650 µM.
In the case of `Nc1ccc2nc(N)nc(N)c2c1` [QUINAZOLINE-2,4,6-TRIAMINE], the IC50 [5] is reported as 40 µM.
In the case of `Nc1ccnc(N)n1` [DIAMINOPYRIMIDINE], the Kd (RNA) is reported as 80 µM.
`OCc1ccc2nsnc2c1` showed a Kd [1] of 56 µM.
For `c1cc(N2CCNCC2)ccn1`, the Kd [1] was 620 µM.
Work on `COc1cc2nc(N3CCNCC3)nc(N)c2cc1OC` [AMINODIMETHOXYQUINAZOLINYLPIPERAZINE] yielded an EC50 (Influenza B virus) of 71 µM, a Kd [8] of 50 µM and an EC50 (Influenza A virus) of 71 µM.
In the case of `CNCc1cc2cccnc2s1`, the Kd [1] is reported as 60 µM.
In the case of `CN1CCN(c2ccc(-c3ccc4nc(-c5ccc(OCCCC(=O)N6CCN(c7nncc8sccc78)CC6)cc5)[nH]c4c3)cc2)CC1`, the IC50 (microRNA 21 [9]) is reported as roughly 1 µM, the IC50 (microRNA 21 [10]) is reported as roughly 1 µM and the Kd (microRNA 21 [7]) is reported as 0.352 µM.
`Cc1nc(N)nc(N)n1` gave a Kd (RNA) of 110 µM.
`Nc1ccc2ccnc(N)c2c1` gave an IC50 [5] of 150 µM.
Work on `Cc1ncc(CN=[N+]=[N-])cn1` yielded a Kd [1] of 49 µM.
`O=c1[nH]cccc1-c1nc(-c2cccc(Cl)c2)no1` gave an IC50 [11] of roughly 1 µM and a Kd [12] of 0.3 µM.
Compound `CCCN(CC(=O)N(CCC)CC(=O)N(CC(N)=O)Cc1cn(CCCNC(=O)CCCOc2c(C(C)(C)C)cc(-c3nc4cc(N5CCN(C)CC5)ccc4[nH]3)cc2C(C)(C)C)nn1)C(=O)CCCOc1cccc(-c2nc3ccc(-c4nc5ccc(N6CCN(C)CC6)cc5[nH]4)cc3[nH]2)c1` has a Kd [6] of 0.085 µM and an IC50 [13] of roughly 0.05 µM.
In the case of `COc1ccc2nc3cc(F)ccc3c(N)c2c1`, the Kd [14] is reported as 59 µM.
Compound `CN1CCN(c2ccc3nc(-c4ccc5[nH]c(-c6cccc(OCCCC(=O)NCCN=[N+]=[N-])c6)nc5c4)[nH]c3c2)CC1` has a Kd [6] of 1.3 µM and an IC50 [13] of roughly 0.02 µM.
`CN(C)CCCOc1ccc(C(NC(=O)c2ccc(-c3cccc(NC(=O)c4ccc(-c5ccccc5)cc4)c3)o2)C(=O)N2CCNCC2)cc1` (centres undefined) gave an MIC (Escherichia coli [15]) of 6 µM (≈ 4.11 µg/mL) and an MIC (Staphylococcus aureus) of 3 µM (≈ 2.06 µg/mL).
Compound `Cc1nc(CN2CCN(Cc3csc(-c4ccccc4)n3)CC2)cs1` has an IC50 (Bacterial 70S ribosome) of 9.1 µM.
Work on `COc1ccc2nc3cc(F)ccc3c(Nc3ccc(C(=O)Nc4ccncc4)cc3)c2c1` yielded a Kd [14] of 1 µM.
In the case of `CCc1nc2ccccc2cc1C(=O)N[C@@H](CSSC[C@H](NC(=O)c1cc2ccccc2nc1CC)C(=O)N1CCC[C@H]1C(=O)N[C@@H](Cc1ccccc1)C(=O)NCCCCCC(N)=O)C(=O)N1CCC[C@H]1C(=O)N[C@@H](Cc1ccccc1)C(=O)NCCCCCC(N)=O`, the Kd [14] is reported as 4.1 µM.
Compound `Nc1nc2[nH]nc(N)n2n1` has a Kd (RNA) of 370 µM.
With `CCc1nc2cc3ccccc3cc2cc1C(=O)N(C)[C@@H](CCn1cc(C[C@@H](C(=O)N2CCC[C@H]2C(=O)N(C)[C@@H](Cc2ccccc2)C(=O)NCCCN)N(C)C(=O)c2cc3cc4ccccc4cc3nc2CC)nn1)C(=O)N1CCC[C@H]1C(=O)N(C)[C@@H](Cc1ccccc1)C(=O)NCCCN` the Kd [14] was 0.016 µM.
In the case of `CCN1CCN(Cc2csc(-c3ccccc3)n2)CC1`, the IC50 (Bacterial 70S ribosome) is reported as 2.8 µM.
`Nc1ccc2nccnc2c1` showed a Kd [1] of 22 µM.
